This is an account of results in patent US20240239861A1, “GLUCAGON-RECEPTOR SELECTIVE POLYPEPTIDES AND METHODS OF USE THEREOF” (i2O Therapeutics, Inc., priority 2016, published 2024).

The structures appear in SMILES notation. “Also recorded” adds a separate entry of the source. Like-named read-outs stand apart in the source and are kept apart here. Where a SMILES comes first, the peptide text is derived from it. [ ]: non-standard residue; d: D form. Aib = CC(C)(N)C(=O)O

The nature of data set [1]: 3-hour subcutaneous infusion pharmacokinetics. Conditions: male, rat, in vivo.
Description: Peptides were formulated in sterile saline and administered as a 3-hour subcutaneous infusion to non-fasted male Wistar Han or Sprague-Dawley rats (n=3 per group) at a final dose of 0.3 or 0.1 mg/kg via a cannula placed into the subcutaneous space between the scapulae. […] Plasma was prepared by centrifugation and stored at −80° C. until analysis.
Protein Precipitation: All 96-well plates were coated with a blocking agent to mitigate non-specific binding of peptides. Plasma samples (75 uL) were added to a 96-well plate containing 200 uL of 2:1 ethanol:acetonitrile containing 0.1% TFA and mixed well via aspiration. Plates were capped, vortex-mixed and centrifuged. Supernatants (215 uL) were transferred to a clean 96-well plate, evaporated to dryness under nitrogen flow and then reconstituted in 75 μL of 20% acetonitrile in water containing 0.10% formic acid.
Solid-Phase Extraction: Samples were diluted 3-fold with 5% NH4OH (aq) and loaded onto an Oasis MAX microElution plate (Waters Corp, Milford, MA) that had been pre-conditioned with 200 uL each of methanol and 5% NH4OH (aq). The plate was washed with 200 uL 5% NH4OH (aq), followed by 200 uL 20% acetonitrile in water. […]
All calibration standards were prepared in control rat plasma containing K2EDTA and protease inhibitor cocktail. […] Peptides were quantified my monitoring one or more product ions produced from a multiply charged parent ion.
A short description of data set [2]: Solubility in water or saline at room temperature, visual inspection. It counts as physicochemical. An excerpt:
Samples were visually inspected for clarity of the sample, any appearance of turbidity or haziness.

Data set [3] is described as follows: Clearance following intravenous infusion, acylated peptides (1-hour infusion, 0.033 mg/kg). The conditions noted are these: rat, in vivo, Table 8, male rats, unit inferred.
The nature of data set [4]: Body weight change in diet-induced obese rats over 27 days, Compound A1 with or without exenatide. It is filed as in vivo, rat.
A short description of data set [5]: 3-hour intravenous infusion pharmacokinetics, peptide clearance (CL). Conditions: male, rat, in vivo.
The nature of data set [6]: Steady state plasma concentrations of glucagon analogs given subcutaneously by osmotic minipump. It is filed as in vivo, rat.
For a further data set, the target named is human GLP-1R (Homo sapiens, UniProt P43220). Description: Peptide-receptor mediated cAMP accumulation (LANCE Ultra cAMP) in CHO-K1 cells transfected with human GLP-1R. It counts as cell-based.
Sequence of human GLP-1R (P43220 24-463): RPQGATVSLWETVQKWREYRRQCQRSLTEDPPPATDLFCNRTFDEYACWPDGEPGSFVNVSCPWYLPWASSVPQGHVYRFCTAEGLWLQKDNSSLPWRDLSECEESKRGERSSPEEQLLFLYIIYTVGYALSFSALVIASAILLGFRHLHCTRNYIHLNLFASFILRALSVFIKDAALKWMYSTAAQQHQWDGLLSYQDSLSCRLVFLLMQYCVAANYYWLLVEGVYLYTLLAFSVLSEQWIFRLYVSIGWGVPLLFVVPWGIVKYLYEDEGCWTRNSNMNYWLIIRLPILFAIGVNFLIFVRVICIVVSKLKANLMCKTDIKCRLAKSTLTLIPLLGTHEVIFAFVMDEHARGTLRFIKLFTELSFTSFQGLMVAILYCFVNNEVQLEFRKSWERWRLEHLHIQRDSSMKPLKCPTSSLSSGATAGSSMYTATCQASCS
Data set [7] in a line: Stability in water or saline at 37° C. and room temperature, 30 days, LC/MS and HPLC purity. It counts as physicochemical. An excerpt: Samples were withdrawn at a regular interval for 30 days and analyzed by LC/MS and HPLC for determination of purity and mass of the degradation product.
For another data set, the target named is human GCGR (Homo sapiens, UniProt P47871). Description: Peptide-receptor mediated cAMP accumulation (LANCE Ultra cAMP) in CHO-K1 cells transfected with human GCGR. It is filed as cell-based. In general terms: Changes in cAMP serve as a functional read-out for many G protein-coupled receptors.
Sequence of human GCGR (P47871 26-477): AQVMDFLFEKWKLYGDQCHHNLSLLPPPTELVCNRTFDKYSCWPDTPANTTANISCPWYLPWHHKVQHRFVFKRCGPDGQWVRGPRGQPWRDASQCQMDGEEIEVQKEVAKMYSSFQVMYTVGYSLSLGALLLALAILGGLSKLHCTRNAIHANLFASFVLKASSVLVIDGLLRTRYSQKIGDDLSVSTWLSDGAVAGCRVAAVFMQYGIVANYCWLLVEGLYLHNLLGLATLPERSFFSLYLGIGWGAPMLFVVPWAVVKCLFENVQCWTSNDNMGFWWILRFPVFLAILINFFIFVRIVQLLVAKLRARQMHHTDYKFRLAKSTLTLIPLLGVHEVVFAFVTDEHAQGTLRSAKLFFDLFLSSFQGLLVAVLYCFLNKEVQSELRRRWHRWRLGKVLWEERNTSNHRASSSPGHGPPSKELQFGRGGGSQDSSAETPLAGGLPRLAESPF
Data set [8] is described as follows: Clearance at intravenous infusion rate of 10 mcg/kg/hr. Conditions: for clearance: rat, in vivo, 10 mcg/kg/hr.
Data set [9] is described as follows: Body weight change in DIO Long Evans rats after 13 days continuous dosing by osmotic pump. The conditions noted are these: for weight loss compared to vehicle control after 13 days: DIO LE rats, single agent; for ED50 of weight loss: DIO rats; for common maximal weight loss response: over 13 days, fits constrained to share it (FIG. 9).
Description: Rats were 15-17 weeks old at the start of the study. The rats were housed 1 per cage and given ad libitum access to high fat diet (Harlan TD.95217, 4.3 kcal/g) and water, maintained on a 12 hr light/dark cycle from 5:00 AM to 5:00 PM at 21° C. and 50% relative humidity and allowed to acclimate for at least 10 days prior to the surgeries. Baseline fat mass and non-fat mass measurements were taken 3 days before the start of peptide infusion using a QMR instrument (Echo Medical Systems, Houston, TX). Body weight measurements were taken 2 times/week starting three days before the surgery. Rats were randomized according to their percent body fat mass and/or body weight into the various treatment groups (n=4-6 rats/group). […] On the day of surgery, rats were anesthetized under isoflurane and the dorsal skin surface was shaved and cleansed. Rats were injected SC with Flunexin (2.5 mg/kg). A 1-2 cm surgical incision was made between the scapulae. Using blunt dissection, a 2-3 cm subcutaneous tunnel was created into which the sterile, filled, mini-osmotic pump was introduced. The skin opening was closed with a skin staple. Each rat was implanted with either one or two osmotic pumps containing vehicle or peptide according to their treatment group. All the data are presented as mean±SEM. The data were analyzed in Excel and/or Prism (GraphPad Software, Inc., La Jolla, CA) using one-way ANOVA to compare each group to the appropriate control group.
For the next data set, the target named is T1, hGIPR (Homo sapiens, UniProt P48546).
T1 sequence (P48546 22-466): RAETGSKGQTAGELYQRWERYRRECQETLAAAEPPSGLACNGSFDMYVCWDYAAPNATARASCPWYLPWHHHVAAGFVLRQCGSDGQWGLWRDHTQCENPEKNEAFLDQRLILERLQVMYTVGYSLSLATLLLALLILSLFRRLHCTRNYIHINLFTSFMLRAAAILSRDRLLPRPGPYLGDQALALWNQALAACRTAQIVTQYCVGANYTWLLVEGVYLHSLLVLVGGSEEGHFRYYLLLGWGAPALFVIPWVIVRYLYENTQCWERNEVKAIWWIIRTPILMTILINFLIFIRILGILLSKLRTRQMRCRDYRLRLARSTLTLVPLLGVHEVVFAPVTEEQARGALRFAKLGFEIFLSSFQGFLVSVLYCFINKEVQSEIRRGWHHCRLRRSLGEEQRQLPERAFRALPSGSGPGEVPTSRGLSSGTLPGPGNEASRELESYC
Kind of data set: Human in vitro potency (pEC50) at hGIPR. It counts as cell-based.

The conditions of data set [10]: rat, in vivo.
A short description of a further data set: in vivo. The conditions noted are these: rat, iv.
Setting [11] is: hGLP1 pEC50 (cAMP mean (n = 3): 11 point curve starting at 1 nM, Table 3).
Where [12] appears, read: hGLP1 pEC50 (cAMP) mean (n = 9): 11 point curve starting at 500 uM, Table 2A.
[13] abbreviates: 13 days infusion, fits sharing vehicle response and common maximum (FIG. 9).

In the case of `CC(C)C[C@H](NC(=O)[C@H](Cc1ccc(O)cc1)NC(=O)[C@H](CCCCN)NC(=O)[C@H](CO)NC(=O)[C@H](Cc1ccc(O)cc1)NC(=O)[C@H](CC(=O)O)NC(=O)[C@H](CO)NC(=O)[C@@H](NC(=O)[C@H](Cc1ccccc1)NC(=O)[C@@H](NC(=O)CNC(=O)[C@H](Cc1c[nH]cn1)NC(=O)[C@H](CO)NC(=O)[C@@H](N)Cc1ccc(O)cc1)[C@@H](C)O)[C@@H](C)O)C(=O)N[C@@H](CC(=O)O)C(=O)NC(C)(C)C(=O)N[C@@H](CCCCN)C(=O)N[C@@H](Cc1ccc(O)cc1)C(=O)N[C@@H](C)C(=O)N[C@@H](CCC(N)=O)C(=O)N[C@@H](CCC(=O)O)C(=O)N[C@@H](Cc1ccccc1)C(=O)N[C@H](C(=O)NC(C)(C)C(=O)N[C@@H](Cc1c[nH]c2ccccc12)C(=O)N[C@@H](CC(C)C)C(=O)N[C@@H](CCC(=O)O)C(=O)N[C@@H](CC(=O)O)C(=O)N[C@@H](CCC(=O)O)C(=O)N1CCC[C@H]1C(=O)N[C@@H](CO)C(=O)N[C@@H](CO)C(=O)NCC(=O)N[C@@H](C)C(=O)N1CCC[C@H]1C(=O)N1CCC[C@H]1C(=O)N1CCC[C@H]1C(=O)N[C@@H](CO)C(=O)O)C(C)C` [Compound A1] (H-YSHGTFTSDYSKYLD[Aib]KYAQEFV[Aib]WLEDEPSSGAPPPS-OH; N-terminus assumed), the bioavailability (in general, dose-corrected exposure relative to a reference, in per cent) in data set [1] is 74%. Further, the solubility (in general, how much of the substance goes into solution per volume) in data set [2] (Table 3, room temperature, read-out: Solubility in water) is above 200 mg/mL. Moreover, the “Physiochemical Properties Solubility” value in data set [2] (Table 6, unit not given) is given as above 200. Also, the clearance in [3] (read-out: CL (IV/SubQ)) was 0.69 L/h/kg; in data set [5] it was 0.69 L/h/kg; in data set [8] (Rat PK Cl, Table 6, unit inferred) it was 0.69 L/h/kg; in [8] (iv, CL mL/min/kg, Table 5, intravenous infusion rate 10 mcg/kg/hr), 0.636 L/h/kg. Moreover, the half-life in data set [3] (read-out: T ½ (converted)) is 49.8 min. The “interaction of the combination with exenatide on weight loss” value in data set [4] (27 days, Compound A1 24 and 50 mcg/kg/day with exenatide 10 mcg/kg/day) was “supra-additive (synergistic) effect”. In [4] (27 days, Compound A1 with exenatide 10 mcg/kg/day), the “maximal weight loss response, combination with exenatide” value is on record as around 47%. The “increase in body weight over 27 days” value in [4] (DIO rats, Compound A1 alone 7.5 mcg/kg/day) is around 4%; in [4] (DIO rats, Compound A1 alone 24 mcg/kg/day), around 4%. Also, in data set [4] (DIO rats, Compound A1 alone, highest infusion rate (50 mcg/kg/day)), the “decrease in body weight over 27 days” value is listed as 16.8%. Moreover, the mode of clearance result in [6] (FIG. 6, steady state plasma concentration vs inulin/GFR) was “consistent with being via glomerular filtration; also recorded: cleared mainly by glomerular filtration”; in [8] (FIG. 7, Table 5 values close to GFR) it was “cleared from plasma via glomerular filtration”. In data set [6] (sc osmotic minipump, rat), the subcutaneous bioavailability result is on record as “high”. At human GLP-1R (FIG. 1B), the “activation profile at the human GLP-1 receptor (GLP-1R)” value is “inactive on GLP-1R”. Also, the EC50 (usually the midpoint of the concentration-response curve) on human GLP-1R (GLP-1R pEC50, Table 7, GLP-1R) is above 1 µM; on human GLP-1R (Human in vitro Potency (pEC50) hGLP-1R, Table 6) it was 6.31 µM; on human GLP-1R (setting [11]), 6.31 µM; on human GLP-1R (setting [12]) it was 6.31 µM; at human GCGR it was 0.0251 nM; at hGIPR, above 10 µM. For the same molecule, the “Stability 1 mg/ml in water at 37 degC” value in data set [7] (Table 3, % printed only in cells of A1-A6) was above 71%. Also, in data set [7] (Table 6), the “Physiochemical Properties Stability” value is listed as above 95%. Also, the “activation profile at the human glucagon receptor (GCGR)” value on human GCGR (FIG. 1A) is reported as “nearly equipotent on GCGR”. In data set [8] (FIG. 7), the “clearance compared with exenatide and glucagon” value is “less than that of exenatide and glucagon”. The “weight loss compared to vehicle control after 13 days” value in data set [9] (0.01 mg/kg/day) stood at 5.6%; in data set [9] (0.03 mg/kg/day), 3.5%; in data set [9] (0.1 mg/kg/day), 10%; in data set [9] (0.3 mg/kg/day), 22.6%. The “ED50 of weight loss” value in [9] (setting [13]) was determined as 51 µg/kg/day; in data set [9] (13 days sc minipump, 4-parameter sigmoid fit of each agent (FIG. 8; Table 6 prints no unit)) it was 65.7 µg/kg/day. In data set [9] (Table 6, rat in vivo), the “% Weight loss Single” value was 26%. Also, the “in vivo potency compared with exenatide” value in data set [9] (administered alone) is “almost as potent in vivo as exenatide”. Further, the “maximal weight loss relative to exenatide” value in data set [9] (greater, administered alone) is 2.3 fold. In addition, the “common maximal weight loss response” value in data set [9] amounted to 27.2%.
Molecule `CC(C)C[C@H](NC(=O)[C@H](Cc1ccc(O)cc1)NC(=O)[C@H](CCCCN)NC(=O)[C@H](CO)NC(=O)[C@H](Cc1ccc(O)cc1)NC(=O)[C@H](CC(=O)O)NC(=O)[C@H](CO)NC(=O)[C@@H](NC(=O)[C@H](Cc1ccccc1)NC(=O)[C@@H](NC(=O)CNC(=O)[C@H](CCC(N)=O)NC(=O)[C@H](CO)NC(=O)[C@@H](N)Cc1ccc(O)cc1)[C@@H](C)O)[C@@H](C)O)C(=O)N[C@@H](CC(=O)O)C(=O)N[C@@H](C)C(=O)N[C@@H](C)C(=O)N[C@@H](CCCNC(=N)N)C(=O)N[C@@H](C)C(=O)N[C@@H](CCC(N)=O)C(=O)N[C@@H](CCC(=O)O)C(=O)N[C@@H](Cc1ccccc1)C(=O)N[C@H](C(=O)N[C@@H](CCCCN)C(=O)N[C@@H](Cc1c[nH]c2ccccc12)C(=O)N[C@@H](CC(C)C)C(=O)N[C@@H](CCC(=O)O)C(=O)N[C@@H](CC(=O)O)C(=O)N[C@@H](CCC(=O)O)C(=O)N1CCC[C@H]1C(=O)N[C@@H](CCCCN)C(=O)N[C@@H](CO)C(=O)N[C@@H](CCCCN)C(=O)N[C@@H](CO)C(=O)N1CCC[C@H]1C(=O)N1CCC[C@H]1C(=O)N1CCC[C@H]1C(=O)N[C@@H](CO)C(N)=O)C(C)C` [Compound A3] (H-YSQGTFTSDYSKYLDAARAQEFVKWLEDEPKSKSPPPS-NH2; N-terminus assumed) came in with a solubility in [2] (Solubility in water mg/ml) above 200 mg/mL. The EC50 on human GLP-1R (setting [11]) and on human GLP-1R (setting [12]) was 0.2 µM throughout. Also, in data set [7], the “Stability 1 mg/ml in water at 37 degC” value is above 64%. Further, in data set [10], the mode of clearance result is recorded as “cleared from plasma via glomerular filtration”. The molecule further came in with a clearance in “in vivo” of 0.642 L/h/kg. Also, the “ED50 of weight loss” value in [9] (setting [13]) came out at 535 µg/kg/day. The “common maximal weight loss response” value in data set [9] stood at 27.2%. Also, in the data set “FIGURE 2B”, the “CL” value came to 0.75 ± 0.096 L/h/kg.
